PubChem BioAssay (NCI)
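Dose response: 5 concentrations. Exposure: 48 h. Format: 96-well plates. Endpoint: linear interpolation; highest concentration if not reached. TGI is the concentration that stops growth completely.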

Columns and labels:
Experiment in all cases: NCI-60 cell line screen, 48 h
SN12C renal = system: SN12C renal
UACC-62 melanoma = system: UACC-62 melanoma
CAKI-1 renal = system: CAKI-1 renal
LOX IMVI melanoma = system: LOX IMVI melanoma
U251 CNS = system: U251 CNS
786-0 renal = system: 786-0 renal
TK-10 renal = system: TK-10 renal
COLO 205 colon = system: COLO 205 colon
OVCAR-5 ovarian = system: OVCAR-5 ovarian

SMILES	TGI (SN12C renal) [µM]	TGI (UACC-62 melanoma) [µM]	TGI (CAKI-1 renal) [µM]	TGI (LOX IMVI melanoma) [µM]	TGI (U251 CNS) [µM]	TGI (786-0 renal) [µM]	TGI (TK-10 renal) [µM]	TGI (COLO 205 colon) [µM]	TGI (OVCAR-5 ovarian) [µM]
CCOC(=O)CNC(SC)=C(C#N)C#N	> 100	> 100	> 100	> 100	> 100	> 100	> 100	> 100	> 100
CC1(C)CCc2cc3c(cc2O1)OC(C)(C)C1c2c(ccc4c2CCC(C)(C)O4)OC31 (stereo not drawn)	> 100	> 100	> 100	> 100	> 100	> 100		> 100	> 100
Cn1cc2ccccc2c1-c1nc(F)nc(Oc2ccc3c(c2)CC[C@@H]2C3CC[C@]3(C)C(O)CCC23)n1 (stereo partly drawn)	33.8			36.9	28	30.5	31.7	44.2	33.3
COc1ccc(CNc2nc3ccccc3nc2-c2cccs2)cc1OC	> 100				> 100	> 100	> 100	> 100	> 100
O=C1c2cnccc2Cc2cccc3c2N1c1ccccc1S3	> 100	41.7	32.6	57.5	34	97.8		59.2	
CC(C)O/C=C1\C(=O)C2(SCCS2)[C@H]2CCCC[C@@H]12	> 100	69.4	> 100		> 100	> 100	> 100	33.4	
COc1cc2ccc(CC#N)cc2cc1OC	> 100		> 100	> 100	> 100	> 100	> 100		> 100
O=C1c2c(c3c4ccccc4n4c3c3c2c2ccccc2n3C/C=C\C4)C(=O)N1Cc1ccccc1	> 100	> 100		> 100	> 100	> 100	> 100	> 100	> 100
O=C(N/C(=C\c1ccc([N+](=O)[O-])cc1)c1nc2[nH]c(=S)[nH]c(=O)c2[nH]1)c1ccccc1	> 100	> 100	> 100		> 100	> 100	> 100	> 100	> 100
CC1SC2=NC3=C(c4ccccc4C3=O)C(c3ccc(Br)cc3)N2C1=O (stereo not drawn)	> 100	> 100	> 100		> 100	> 100	> 100	> 100	> 100
NNC(=O)CC(=O)Nc1ccccc1F	> 100	> 100	> 100	> 100	> 100	> 100		> 100	> 100
